structure (smiles),measurement,setting,value
CCN(CC)CCCC(C)Nc1ccnc2cc(Cl)ccc12 (centres unmarked) [chloroquine],Drug Loading (% of Added),"Table 2, DPPC:Cholesterol 2:1 liposomes, 0.375M sulfuric acid, phosphate buffered loading",100 % of Added
same,loaded using the acid loading methodology,"sulfuric acid 0.375 M, 6 mg buprenorphine, 33 mg chloroquine added",100%

# From patent US20170258722A1, “ENCAPSULATING LIPOSOMES” (priority 2012, published 2017)
